In patent US8518883B2, “Method of reducing deleterious effects of ischemia by administration of a thrombopoietin receptor ligand” (MCW Research Foundation, Inc., priority 2006, dated 2013):

Assays:
in vitro rat hearts = test: TUNEL assay of apoptosis in isolated rat hearts after global ischemia/reperfusion
Protocol: Hearts from Sprague Dawley rats perfused continuously with bicarbonate buffer for 245 minutes served as non-ischemic controls (FIG. 5). Hearts aerobically perfused for 35 minutes and subjected to 25 minutes of global ischemia followed by 3 hours reperfusion served as the ischemia-reperfusion control group. Hearts aerobically perfused with buffer for 20 minutes and then perfused with Tpo (1 ng/ml) for 15 minutes before ischemia and reperfusion served as a Tpo-treated group. Each heart at the end of perfusion was snap frozen in liquid nitrogen. Four frozen sections (10 micron thick) from each heart (72 sections total) were processed for TUNEL assay according to the manufacturers protocol (Roche). The slides were examined under fluorescent microscope (400× magnification, excitation 490 nm, and emission 515 nm). Twenty-two random high-power fields from each heart sample were chosen and blindly quantified. TUNEL results are presented as % (positive nuclei per field/total nuclei per field×100%).

Sprague Dawley rats = test: Coronary artery ligation model, regional myocardial ischemia in vivo, Tpo given 15 min prior to ischemia; parameters: species or system rat
Protocol: Animals used in this study were adult male Sprague Dawley rats (200-350 g, generally 300 g). Animals were housed under standard conditions and allowed to feed ad lib. The Animal Care and Use Committee of the Medical College of Wisconsin approved all procedures performed in accordance with the regulations adopted by the National Institutes of Health.
Rats were anesthetized with sodium pentobarbital (50 mg/kg i.p.). Heparin was administered (150 U/kg i.p.) to prevent the formation of a thrombus in the coronary vasculature. A myocardial infarction was produced via the ligation of the left main artery using 6-0 prolene suture (See, e.g., Clements-Jewery, et al., Br. J. Pharmacol. 135:807-815, 2002; Farkas, et al., J. Cardiovasc. Pharmacol. 39:412-424, 2002). The left main coronary artery was identified and ligated with a 5-0 Prolene suture threaded through a polyethylene tube to act as an occluder. A control group included sham operated hearts in which only a suture was passed around the left main coronary artery was performed.
Animals were treated with Tpo (0.005-0.5 micrograms/kg) administered intravenously for 15 minutes prior to the onset of ischemia. Regional ischemia and reperfusion were induced by tightening the occluder and by releasing it. Hearts were then subjected to 30 minutes regional ischemia followed by 3 hours reperfusion. Recovery of left ventricular developed pressure and infarct size/area at risk at 3 hours reperfusion were used to assess resistance to myocardial ischemia. For characterization of infarction size, hearts were perfused with 10 ml bicarbonate buffer containing triphenyltetrazolium chloride (SIGMA) at 37° C.
The heart was sectioned in 2 mm segments from apex to atrio-ventricular groove in a transverse fashion. Each segment was recorded and placed in formalin. After twenty-four (24) hours, the specimen was digitally photographed in a camera mount to normalize specimen-to-lens distance. Each photograph was then appended to Adobe Photoshop (Adobe™) to measure pixel density of infarcted versus non-infarcted areas. The percentage of infarction of each slide was expressed as a percentage of the entire area of the heart.
There was no significant difference in body weight, heart weight or risk zone size between groups. […] Significant differences were found for mean arterial pressure and rate pressure for some groups when compared to sham. For each group, the area at risk compared to total left ventricle weight was calculated. There were no significant differences seen between groups (data not shown).

[1] = system: healthy individuals and those about to receive chemotherapy; conditions: human trials, Tpo doses of 1-5 μg/kg; cited from earlier work
[2] = 15 min ISCHEMIA, Tpo 0.005 μg/kg i.v.
[3] = 15 min ISCHEMIA, Tpo 0.05 μg/kg i.v.
[4] = 15 min ISCHEMIA, Tpo 0.5 μg/kg i.v.
[5] = 3 hr REPERFUSION, Tpo 0.005 μg/kg i.v.
[6] = 3 hr REPERFUSION, Tpo 0.05 μg/kg i.v.
[7] = 3 hr REPERFUSION, Tpo 0.5 μg/kg i.v.

Thrombopoietin [Tpo]
TUNEL-positive cells (in vitro rat hearts; Tpo 1.0 ng/ml 15 min before 25 min global ischemia, 3 hours reperfusion, ischemia control 3.56±0.75%, non-ischemic 1.91±0.54%): 1.94±0.55% | Apoptosis following ischemia and reperfusion (in vitro rat hearts; Tpo 1.0 ng/ml prior to ischemia): reduced | Heart rate (Sprague Dawley rats; [2]): 374 ± 12 beats/min | Mean arterial pressure (Sprague Dawley rats; [2]): 104 ± 11 mmHg | Heart rate (Sprague Dawley rats; [3]): 352 ± 11 beats/min | Mean arterial pressure (Sprague Dawley rats; [3]): 124 ± 11 mmHg | Heart rate (Sprague Dawley rats; [4]): 382 ± 13 beats/min | Mean arterial pressure (Sprague Dawley rats; [4]): 121 ± 13 mmHg | Heart rate (Sprague Dawley rats; [5]): 359 ± 13 beats/min | Mean arterial pressure (Sprague Dawley rats; [5]): 92 ± 7 mmHg | Heart rate (Sprague Dawley rats; [6]): 332 ± 11 beats/min | Mean arterial pressure (Sprague Dawley rats; [6]): 105 ± 11 mmHg | Heart rate (Sprague Dawley rats; [7]): 364 ± 13 beats/min | Mean arterial pressure (Sprague Dawley rats; [7]): 108 ± 16 mmHg | Heart rate (Sprague Dawley rats; BASELINE, Tpo 0.005 μg/kg i.v.): 386 ± 17 beats/min | Mean arterial pressure (Sprague Dawley rats; BASELINE, Tpo 0.005 μg/kg i.v.): 133 ± 13 mmHg | Heart rate (Sprague Dawley rats; BASELINE, Tpo 0.05 μg/kg i.v.): 342 ± 16 beats/min | Mean arterial pressure (Sprague Dawley rats; BASELINE, Tpo 0.05 μg/kg i.v.): 138 ± 6 mmHg | Heart rate (Sprague Dawley rats; BASELINE, Tpo 0.5 μg/kg i.v.): 371 ± 11 beats/min | Mean arterial pressure (Sprague Dawley rats; BASELINE, Tpo 0.5 μg/kg i.v.): 144 ± 6 mmHg | Optimal concentration of Tpo that afforded maximum reduction of infarct size (Sprague Dawley rats; Tpo 0.005-0.5 μg/kg i.v. 15 min prior to ischemia): 0.05 µg/kg | Post ischemic myocardial infarct size (Sprague Dawley rats; Tpo i.v. 15 min prior to 30 min regional ischemia, 3 hours reperfusion, 'U' shaped dose dependence): decreased | Increase of platelet production [1]: 5-10 times
